Results reported in patent publication US8822441B2, “Ecdysterone synthesis derivative, preparation method and use thereof” (priority 2010, dated 2014).
Structures can show the parent of a compound that is named as a salt.

Tests used:
[1] = tested on: β-TC3 cells; conditions: cited from earlier work
[2] = tested on: PI3K and GLUT-4 proteins; conditions: 1×10^−5M, P<0.05; cited from earlier work
[3] = tested on: InsR protein; conditions: 1×10^−5 mol/L; cited from earlier work
[4] = tested on: HepG2 cells; test: in vitro glucose consumption in HepG2 cells (glucose oxidase method); type: cell-based; conditions: for Glucose consumption / Glucose consumption increased: HepG2 cells; for Glucose consumption: 24 h, x ± s, n = 8; for Glucose consumption increased: versus blank control group
Protocol: HepG2 cells with good growth state were selected, and were digested with trypsinase and EDTA (ethylene diamine tetraacetic acid) digestive juice. After digestion was complete, the resulting mixture was formulated with DMEM (Dulbecco's Modified Eagle Medium) having 10% Fetal bovine serum (FBS) into single cell suspension. The cells were seeded into 96 well plates, with 1*10^4 cells per well. Once the cell confluence reached 50%, the medium was changed to high glucose DMEM without serum, starvation cultured for 12 h. The cell supernatant was pipetted, and fresh high glucose DMEM with or without medications was added. The cells were divided into a blank control group, a 20-hydroxy-β-ecdysterone group, and a compound of formula I group. After culturing for 24 h, each group was tested for the change of glucose in the medium by using the glucose oxidase method.

[5] = tested on: normal mice; test: level of blood glucose in normal mice; type: in vivo, Kunming mouse; conditions: for Blood glucose 3 d after dosing: 5th administration; for Blood glucose 3 d after dosing / Blood glucose 10 d after dosing: fasting 2 h, X ± S; for Blood glucose 10 d after dosing: 19th administration; for effects in lowering glucose in normal mice: 5 mg/kg
Protocol: 40 male mice with a body weight of 21±1.8 g (Kunming mouse: SPF grade, male, provided by laboratory animal centre of Sichuan Academy of Chinese Medicine Sciences) were grouped into 4 groups randomly, which are control group, 5 mg/kg of the compound of formula I group, 5 mg/kg of the sodium salt of the compound of formula I group, and 25 mg/kg of Glibenclamide (manufactured by Tianjin Pacific Chemical & Pharmaceutical Co., LTD) group. For the control group, distilled water was given, while for other groups, corresponding medicaments were given. The medicament was intragastrically administered in 0.2 ml/10 g of administration volume twice daily. The administration was continued for 19 times. On the 5th time and 19th time and after thoroughly fasting for 2 h, the blood glucose value for each mouse was tested by a Blood Glucose Meter, and the results were recorded as follows: […]

[6] = dissolution experiment (solubility in water); type: physicochemical; conditions: for amount of water necessarily for completely dissolving this product (1 g): 1 g of product; for solubility in water relative to 20-hydroxy-β-ecdysterone: fold of that of 20-hydroxy-β-ecdysterone
[7] = 25 mg/kg intragastrically twice daily, *P<0.05 vs control
[8] = 5 mg/kg intragastrically twice daily
[9] = 5 mg/kg intragastrically twice daily, *P<0.05 vs control

Compound	Glucose consumption ([4]; 2 × 10^−7 M) [mM]	Glucose consumption increased ([4]; 2 × 10^−7 M) [mM]	Glucose consumption ([4]; 2 × 10^−8 M) [mM]	Glucose consumption increased ([4]; 2 × 10^−8 M) [mM]	Glucose consumption ([4]; 2 × 10^−9 M) [mM]	amount of water necessarily for completely dissolving this product (1 g) [6] [mL]	solubility in water relative to 20-hydroxy-β-ecdysterone [6] [fold]	effects in lowering glucose in normal mice [5]	Blood glucose 3 d after dosing [5, 8] [mmol/L]	Blood glucose 10 d after dosing [5, 9]	further results
CC(C)(O)CC[C@@H](O)[C@](C)(O)[C@H]1CC[C@@]2(O)C3=CC(=O)[C@@H]4C[C@@H](O)[C@@H](O)C[C@]4(C)[C@H]3CC[C@]12C [ecdysterone]											stimulating insulin secretion of β-TC3 cells [1]: does not have the action of stimulating insulin secretion; expression of PI3K and GLUT-4 proteins in insulin resistant HepG2 cells [2]: increases; expression of InsR protein in IR HepG2 cells [3]: significantly increases
CC(C)(O)CC[C@@H](O)[C@](C)(O)[C@H]1CC[C@@]2(O)C3=CC(=O)[C@@H]4C[C@@H](O)[C@@H](O)C[C@]4(C)[C@H]3CC[C@]12C [20-hydroxy-β-ecdysterone, reference compound]	1.45 ± 0.28	0.13	1.38 ± 0.11	0.06	1.30 ± 0.23						increase of the glucose consumption in HepG2 cells ([4]; concentration 2×10^−7˜2×10^−8 M): below 15%; effect for lowering glucose in HepG2 cells ([4]; concentration 2×10^−9 M): no effect
COc1ccc(Cl)cc1C(=O)NCCc1ccc(S(=O)(=O)NC(=O)NC2CCCCC2)cc1 [Glibenclamide, reference compound]											Blood glucose 3 d after dosing [5, 7]: 9.3 ± 0.9* mmol/L; Blood glucose 10 d after dosing [5, 7]: 9.9 ± 0.9* mmol/L
CC(C)(O)CC[C@H]1OP(=O)(O)O[C@]1(C)[C@H]1CC[C@@]2(O)C3=CC(=O)[C@@H]4C[C@@H](O)[C@@H](O)C[C@]4(C)C3CC[C@]12C (some centres unmarked) [the compound of formula I]	6.96 ± 0.23	5.64	6.51 ± 0.12	5.19	6.46 ± 0.19	12	10	have the effects in lowering glucose	10.4 ± 1.7	9.1 ± 2.3* mmol/L	Glucose consumption increased ([4]; 2 × 10^−9 M): 5.14 mM; increase of the glucose consumption in HepG2 cells ([4]; concentration range 2×10^−7˜2×10^−9 M): above 500%
CC(C)(O)CC[C@H]1OP(=O)(O)O[C@]1(C)[C@H]1CC[C@@]2(O)C3=CC(=O)[C@@H]4C[C@@H](O)[C@@H](O)C[C@]4(C)C3CC[C@]12C (some centres unmarked) [sodium salt of the compound of formula I]						2.5	50	have the effects in lowering glucose	10.2 ± 1.9	9.8 ± 1.4* mmol/L	
